According to patent US20080234345A1, “METHOD FOR REDUCING OR ALLEVIATING INFLAMMATION IN THE DIGESTIVE TRACT” (Gene Logic Inc., priority 2006, published 2008):

Columns and labels:
[1] = test system: NF-κB dependent transcription; assay: TNFα-induced activation of NF-κB in recombinant HeLa reporter cells (luciferase); format: cell-based
Excerpt: To test the ACE2 inhibitor GL1001 for anti-inflammatory activity relevant to IBD, effects of the compound on activation of NF-κB dependent transcription by TNFα were examined in recombinant reporter cells containing a construct with a luciferase reporter gene under control of NF-κB dependent regulatory sequences, thereby allowing detection of NF-κB dependent transcription by measuring reporter enzyme using a conventional luciferase activity assay based on detection of generated light.
In particular, HeLa cells (American Type Culture Collection) were grown in Dulbecco's modified Eagles medium (DMEM) supplemented with 10% fetal calf serum and transiently transfected with an NF-κB-luc construct (Stratagene, Inc.), as follows (with all incubation steps at 37 C unless otherwise indicated). Cells were seeded and grown to about 70% confluency in a 10 cm cell culture dish. Plasmid DNA (10 μg) was added to 1 ml serum free DMEM media in a tube. Fugene 6 transfection reagent (30 μl) (Roche) was then pipetted slowly into the tube and the contents were gently mixed by inversion. The mixture was incubated at room temperature for 15 minutes and then added dropwise to cells in one 10 cm dish. Following incubation for 24 hours, cells were detached from the plate with Trypsin-EDTA (Gibco-BRL), transferred to wells in a clear-bottom white 96-well test plate (Fisher) with 100 μl per well serum free DMEM, at a density of 3×10^4 cells per well, and allowed to attach overnight. Compound (GL1001) was then added to wells at a concentration of approximately 0, 0.008, 0.04, 0.2, 1.0 or 5.0 μM, followed immediately by addition of TNFα (R&D) to a final concentration of 20 ng/ml. After incubation for 6 hours, 100 μl of Bright-Glo Luciferase buffer (Promega, Cat# E2610) was added, and the plate was incubated at room temperature, with mild shaking, for 10 min. Bioluminescence was then measured using a Veritas luminometer (Turner BioSystems). Each plotted data point represents the average bioluminescence of 4 independent wells.

[2] = test system: NF-κB dependent transcription; assay: In vivo LPS induced NF-κB dependent transcription in NF-κB::Luc mice, abdominal imaging
Excerpt: More particularly, transgenic NF-κB::Luc mice were generated using three NF-κB response elements from the Igκ light chain promoter fused to a firefly luciferase gene as described by Carlsen et al. (2002) J. Immunol. 168:1441-1446. Pronuclear microinjection of purified construct DNA was used to generate transgenic founders in the C57BL/6 XCBA/J background. Founders were subsequently back crossed to the C57BL/6 albino background. All experimental protocols were approved by the Institutional Animal Care and Use Committee and conform to the ILAR guide for the care and used of laboratory animals. For in vivo imaging, NF-κB::Luc mice were injected intraperitoneally with luciferin (150 mg/kg) 10 minutes before imaging, anesthetized (using 1-3% isoflurane) and placed into a light-tight camera box. […] Signal data were also quantitated and archived using the Living Image® software. Photons of light were quantitated using an oval region of interest (ROI) of varying sizes depending on the procedure, as described further below.
GL1001 was further tested for in vivo anti-inflammatory activity by examining its effects on bacterial LPS induced NF-κB dependent transcription, in NF-κB::Luc mice. […] Mice were subjected to quantitative abdominal imaging at 2, 4 and 6 h following LPS administration, as described above. […] Luciferase signal was quantitated from several regions of interest. […]

[3] = test system: dextran sulfate sodium (DSS) induced colitis in mice; assay: DSS induced colitis in NF-κB::Luc mice (Example 5); format: in vivo; settings: 100 mg/kg s.c. per day
Excerpt: GL1001 was further tested for in vivo anti-inflammatory activity by examining its effects on dextran sulfate sodium (DSS) induced colitis in mice. […] See, e.g., Hollenbach et al. (2004) FASEB J. 18(13):1550-1552. See also Bryne et al. (2006), Current Opinion in Drug Discovery & Development 8(2):207-217 and sources cited therein. These pathologies include predominant left-sided colonic inflammation, prominent regeneration of the colonic mucosa cells with dysplasia leading to colon cancer, shortening of the large intestine, focal crypt damage, and frequent lymphoid hyperplasia in both biological systems. Further, according to Hollenbach et al (2004), supra, DSS-induced colitis in mice has a high value in assessing the efficacy of therapeutic agents commonly used in the treatment of colitis, since all therapeutically beneficial substances in human IBD were also shown to reduce the disease activity in this mouse model.
The study was designed with three groups: control (5 mice), 2.5% DSS alone (10 mice), and 2.5% DSS with GL1001 treatment (100 mg/kg subcutaneously per day) (10 mice). NF-κB::Luc mice were used to measure NF-κB activation as an indicator of inflammatory activity, as described above. In particular, organ specific luciferase activity was measured, in addition to body weight, fluid intake, occult fecal blood, organ weights and neutrophil infiltration (MPO assay). NF-κB::luc BL/6 albino background mice of 6-8 weeks of age were provided with 2.5% dextran sodium sulfate (DSS, MW 40,000; MP Biomedicals) in the drinking water. Mice were weighed, imaged and dosed with GL1001 daily. Fecal samples were collected from the bottom of the cages for each treatment group and tested for fecal consistency and occult blood using Hemocult Tape as directed by the manufacturer (Fisher Scientific) and fluid consumption was measured. At the conclusion of the study, the GI tract was removed, the various sections were cleaned and weighed, tissue samples were prepared for bioluminescent assays and myeloperoxidase (Myeloperoxidase assay kit, Cytostore) to look at neutrophil infiltration.
The mice were weighed and imaged at the time of daily GL1001 or vehicle control administration. Biophotonic images of the mice were acquired each day, as described above, with quantitative abdominal imaging results shown in FIG. 7. […] Water consumption was monitored for all of the animals and similar consumption rates indicate that DSS treated mice were all receiving similar amounts of DSS (FIG. 8).
Inflammatory bowel disease progression was monitored using an inflammatory bowel disease activity index which consists of the sum of percent weight loss, stool consistency and occult fecal blood divided by 3.

SMILES: CC(C)C[C@H](N[C@@H](Cc1cncn1Cc1cc(Cl)cc(Cl)c1)C(=O)O)C(=O)O [GL1001, (S,S)-2-[1-carboxy-2-[3-(3,5-dichlorobenzyl)-3H-imidazol-4-yl]-ethylamino]-4-methylpentanoic acid]
- inhibition of TNFα induced activation of NF-κB dependent transcription ([1]; 8 nM GL1001, TNFα 20 ng/ml, 6 hours): over 80%
- maximal inhibition of TNFα induced activation of NF-κB dependent transcription ([1]; 0.2 μM GL1001, TNFα 20 ng/ml, 6 hours): over 95%
- TNFα induced activation of NF-κB dependent transcription ([1]; all tested concentrations (0.008-5.0 μM)): significantly inhibited
- LPS induced NF-κB signaling response, abdominal region ([2]; GL1001 30, 100, 300 mg/kg s.c. 1 hour before LPS i.v. (FIG. 4)): significantly reduced
- LPS induced NF-κB signaling ([2]; at 30 and 100 mg/kg, dose range 3-100 mg/kg (FIG. 5)): significantly reduced
- inflammatory bowel disease activity index ([3]; between days 3 and 8): slight delay
- reduction in body weight ([3]; between days 4 and 9, vs DSS only): significantly delayed
- NF-κB-driven luciferase expression, abdominal imaging, DSS only vs DSS+GL1001 ([3]; from study day 6): non-statistically significant divergence
- DSS induced organ weight increases (organ weight/body weight ratio) ([3]; cecum and large intestine (colon)): completely prevented
